{"source": "paper PMC6590375", "about": "(Journal of Clinical Pharmacology, 2019)", "key": {"[1]": {"settings": "cited from earlier work"}, "[2]": {"settings": "human, plasma, oral"}, "[3]": {"type": "in vivo, human"}, "[4]": {"type": "in vivo, human", "settings": "for AUCinf central value, higher than in subjects with normal renal function: regression analyses"}, "[5]": {"settings": "single 15 mg dose, all subjects"}, "[6]": {"settings": "mild renal impairment (N = 6), single 15-mg extended-release dose, fasting"}, "[7]": {"settings": "normal renal function (N = 6), single 15-mg extended-release dose, fasting"}, "[8]": {"settings": "severe renal impairment (N = 6), single 15-mg extended-release dose, fasting"}}, "note": "Read-outs that look alike come from different tables or passages of the source.", "data": [{"molecule": "CC[C@@H]1CN(C(=O)NCC(F)(F)F)C[C@@H]1c1cnc2cnc3[nH]ccc3n12", "note": "[Upadacitinib]", "values": [{"measurement": "Immediate-release dose eliminated in urine as unchanged upadacitinib", "setting": "[1]; immediate-release formulation", "value": "Approximately 20%"}, {"measurement": "Dose proportionality of plasma exposures", "setting": "[1]; over the range of immediate-release or extended-release doses evaluated in clinical studies", "value": "approximately dose‐proportional"}, {"measurement": "CL renal", "setting": "[2]", "value": "~400", "unit": "mL/min"}, {"measurement": "Adverse events", "setting": "[3]; one subject in the mild renal impairment group, mild, reasonable possibility of being related to study drug, no other adverse events reported", "value": "diarrhea and upper respiratory infection"}, {"measurement": "Physical exam, vital signs, electrocardiogram and laboratory findings", "setting": "[3]; [5]", "value": "no clinically significant physical exam findings, vital sign measurements, electrocardiogram abnormalities, or laboratory test abnormalities"}, {"measurement": "Tolerability", "setting": "[3]; [5]", "value": "well tolerated"}, {"measurement": "CL renal", "setting": "[4]; both, human, urine and plasma, oral, 15 mg", "value": 32.7, "unit": "mL/min"}, {"measurement": "fe (fraction of dose excreted unchanged in urine), arithmetic mean ± SD", "setting": "[4]; [6]", "value": "7.03 ± 3.05", "unit": "%"}, {"measurement": "fe (fraction of dose excreted unchanged in urine), geometric mean", "setting": "[4]; [6]", "value": 6.51, "unit": "%"}, {"measurement": "CLR (renal clearance), arithmetic mean ± SD", "setting": "[4]; [7]", "value": "5.64 ± 2.13", "unit": "L/h"}, {"measurement": "fe (fraction of dose excreted unchanged in urine), arithmetic mean ± SD", "setting": "[4]; [7]", "value": "9.91 ± 4.05", "unit": "%"}, {"measurement": "fe (fraction of dose excreted unchanged in urine), geometric mean", "setting": "[4]; [7]", "value": 9.24, "unit": "%"}, {"measurement": "AUCinf central value, higher than in subjects with normal renal function", "setting": "[4]; mild renal impairment", "value": 18, "unit": "%"}, {"measurement": "AUCinf central value, higher than in subjects with normal renal function", "setting": "[4]; moderate renal impairment", "value": 33, "unit": "%"}, {"measurement": "AUCinf central value, higher than in subjects with normal renal function", "setting": "[4]; severe renal impairment", "value": 44, "unit": "%"}, {"measurement": "fe (fraction of dose excreted unchanged in urine), arithmetic mean ± SD", "setting": "[4]; [8]", "value": "2.48 ± 1.62", "unit": "%"}, {"measurement": "fe (fraction of dose excreted unchanged in urine), geometric mean", "setting": "[4]; [8]", "value": 2.10, "unit": "%"}]}]}
